According to patent US20040006070A1, “Intraspinal continuous infusion of midazolam hydrochloride for the treatment of pain” (priority 2002, published 2004):
Where a name gives a salt, the structure may show the parent alone.

Experiment: Bloodwork: complete blood count, electrolytes, extended blood chemistry
Type: in vivo, sheep
Experimental: Indirect blood pressure, pulse recording, pain testing (mechanical stimulus device, cold and warm water baths see description in procedure) and weight were taken on days 1, 3, 7, 15, 22, 29, 36, and 43. Venous blood samples (15 ml drawn from the jugular vein with Vacutainer brand blood collection tubes) for complete blood count, electrolytes, and extended blood chemistry were drawn on days 1, 15, and 43 (mild procedure only light hand restraint necessary).

[1] = sheep #84 Roadrunner, 15 mg/day, Day 1
[2] = sheep #84 Roadrunner, 15 mg/day, Day 15
[3] = sheep #84 Roadrunner, 15 mg/day, Day 43

SMILES: Cc1ncc2n1-c1ccc(Cl)cc1C(c1ccccc1F)=NC2 [Midazolam, midazolam hydrochloride]
- Total Bili [1]: 0.3 mg/dL
- Total Prot [1]: 5.9 g/dL
- WBC [1]: 5390 µL⁻¹
- ALT [2]: 2 U/L
- AST [2]: 60 U/L
- Albumin [2]: 3.7 g/dL
- Alk Phos [2]: 98 U/L
- BUN [2]: 11 mg/dL
- CPK [2]: 53 U/L
- Cholesterol [2]: 56 mg/dL
- Creatinine [2]: 1.3 mg/dL
- Differential Count: Eosin [2]: 12%
- Differential Count: Lymph [2]: 44%
- Differential Count: Seg [2]: 44%
- Gamma GT [2]: 62 U/L
- Glucose [2]: 66 mg/dL
- Hct [2]: 31.8%
- Hgb [2]: 10.8 g/dL
- K+ [2]: 4.8 mEq/l
- MCH [2]: 10.8 pg
- MCHC [2]: 34.0 g/dL
- MCV [2]: 31.8 fL
- Na+ [2]: 150 mEq/l
- Phos [2]: 6.6 mg/dL
- Platlet Count [2]: 848000 µL⁻¹
- RBC [2]: 1e+07 µL⁻¹
- Total Bili [2]: 0.1 mg/dL
- Total Prot [2]: 6.4 g/dL
- WBC [2]: 5130 µL⁻¹
- ALT [3]: 7 U/L
- AST [3]: 65 U/L
- Albumin [3]: 3.54 g/dL
- Alk Phos [3]: 143 U/L
- BUN [3]: 11 mg/dL
- CPK [3]: 102 U/L
- Cholesterol [3]: 57 mg/dL
- Creatinine [3]: 1.2 mg/dL
- Differential Count: Atyp lym [3]: 1%
- Differential Count: Eosin [3]: 2%
- Differential Count: Lymph [3]: 67%
- Differential Count: Mono [3]: 1%
- Differential Count: Seg [3]: 29%
- Gamma GT [3]: 56 U/L
- Glucose [3]: 74 mg/dL
- Hct [3]: 35.0%
- Hgb [3]: 11.9 g/dL
- K+ [3]: 4.6 mEq/l
- MCH [3]: 11.8 pg
- MCHC [3]: 34.0 g/dL
- MCV [3]: 34.7 fL
- Na+ [3]: 149 mEq/l
- Phos [3]: 7.1 mg/dL
- Platlet Count [3]: 727000 µL⁻¹
- RBC [3]: 1.01e+07 µL⁻¹
- Total Bili [3]: 0.1 mg/dL
- Total Prot [3]: 6.0 g/dL
- WBC [3]: 5150 µL⁻¹
- ALT (sheep #85, 15 mg/day, Day 1): 7 U/L
- AST (sheep #85, 15 mg/day, Day 1): 76 U/L
- Alk Phos (sheep #85, 15 mg/day, Day 1): 50 U/L
- BUN (sheep #85, 15 mg/day, Day 1): 10 mg/dL
- CPK (sheep #85, 15 mg/day, Day 1): 99 U/L
- Cholesterol (sheep #85, 15 mg/day, Day 1): 52 mg/dL
- Differential Count: Baso (sheep #85, 15 mg/day, Day 1): 1%
- Differential Count: Eosin (sheep #85, 15 mg/day, Day 1): 1%
- Differential Count: Lymph (sheep #85, 15 mg/day, Day 1): 22%
- Differential Count: Mono (sheep #85, 15 mg/day, Day 1): 1%
- Differential Count: Seg (sheep #85, 15 mg/day, Day 1): 75%
- Gamma GT (sheep #85, 15 mg/day, Day 1): 68 U/L
- Glucose (sheep #85, 15 mg/day, Day 1): 75 mg/dL
- Hct (sheep #85, 15 mg/day, Day 1): 28.0%
- Hgb (sheep #85, 15 mg/day, Day 1): 9.2 g/dL
- MCH (sheep #85, 15 mg/day, Day 1): 10.7 pg
- MCHC (sheep #85, 15 mg/day, Day 1): 32.8 g/dL
- MCV (sheep #85, 15 mg/day, Day 1): 32.7 fL
- Na+ (sheep #85, 15 mg/day, Day 1): 149 mEq/l
- Platlet Count (sheep #85, 15 mg/day, Day 1): 994000 µL⁻¹
- RBC (sheep #85, 15 mg/day, Day 1): 8.57e+06 µL⁻¹
- WBC (sheep #85, 15 mg/day, Day 1): 4780 µL⁻¹
- Total Bili (sheep #85, 15 mg/day, Day 1, ref 0.14-0.32): 0.1 mg/dL
- Creatinine (sheep #85, 15 mg/day, Day 1, ref 1-2.7): 1.4 mg/dL
- Albumin (sheep #85, 15 mg/day, Day 1, ref 2.4-3): 3.4 g/dL
- K+ (sheep #85, 15 mg/day, Day 1, ref 3.9-5.4): 4.7 mEq/l
- Phos (sheep #85, 15 mg/day, Day 1, ref 5-7.3): 5.3 mg/dL
- Total Prot (sheep #85, 15 mg/day, Day 1, ref 6-7.9): 6.1 g/dL
- ALT (sheep #85, 15 mg/day, Day 15): 10 U/L
- AST (sheep #85, 15 mg/day, Day 15): 56 U/L
- Alk Phos (sheep #85, 15 mg/day, Day 15): 54 U/L
- BUN (sheep #85, 15 mg/day, Day 15): 17 mg/dL
- CPK (sheep #85, 15 mg/day, Day 15): 56 U/L
- Cholesterol (sheep #85, 15 mg/day, Day 15): 58 mg/dL
- Differential Count: Eosin (sheep #85, 15 mg/day, Day 15): 12%
- Differential Count: Lymph (sheep #85, 15 mg/day, Day 15): 44%
- Differential Count: Seg (sheep #85, 15 mg/day, Day 15): 44%
- Gamma GT (sheep #85, 15 mg/day, Day 15): 54 U/L
- Hct (sheep #85, 15 mg/day, Day 15): 31.8%
- Hgb (sheep #85, 15 mg/day, Day 15): 10.8 g/dL
- MCH (sheep #85, 15 mg/day, Day 15): 10.8 pg
- MCHC (sheep #85, 15 mg/day, Day 15): 34.0 g/dL
- MCV (sheep #85, 15 mg/day, Day 15): 31.8 fL
- Na+ (sheep #85, 15 mg/day, Day 15): 148 mEq/l
- Platlet Count (sheep #85, 15 mg/day, Day 15): 848000 µL⁻¹
- RBC (sheep #85, 15 mg/day, Day 15): 1e+07 µL⁻¹
- WBC (sheep #85, 15 mg/day, Day 15): 5130 µL⁻¹
- Total Bili (sheep #85, 15 mg/day, Day 15, ref 0.14-0.32): 0.0 mg/dL
- Creatinine (sheep #85, 15 mg/day, Day 15, ref 1-2.7): 1.2 mg/dL
- Albumin (sheep #85, 15 mg/day, Day 15, ref 2.4-3): 2.8 g/dL
- K+ (sheep #85, 15 mg/day, Day 15, ref 3.9-5.4): 5.0 mEq/l
- Phos (sheep #85, 15 mg/day, Day 15, ref 5-7.3): 6.0 mg/dL
- Total Prot (sheep #85, 15 mg/day, Day 15, ref 6-7.9): 5.4 g/dL
- ALT (sheep #85, 15 mg/day, Day 43): 8 U/L
- AST (sheep #85, 15 mg/day, Day 43): 59 U/L
- Alk Phos (sheep #85, 15 mg/day, Day 43): 92 U/L
- BUN (sheep #85, 15 mg/day, Day 43): 13 mg/dL
- CPK (sheep #85, 15 mg/day, Day 43): 81 U/L
- Cholesterol (sheep #85, 15 mg/day, Day 43): 72 mg/dL
- Differential Count: Eosin (sheep #85, 15 mg/day, Day 43): 4%
- Differential Count: Lymph (sheep #85, 15 mg/day, Day 43): 75%
- Differential Count: Mono (sheep #85, 15 mg/day, Day 43): 3%
- Differential Count: Seg (sheep #85, 15 mg/day, Day 43): 18%
- Gamma GT (sheep #85, 15 mg/day, Day 43): 60 U/L
- Glucose (sheep #85, 15 mg/day, Day 43): 76 mg/dL
- Hct (sheep #85, 15 mg/day, Day 43): 34.7%
- Hgb (sheep #85, 15 mg/day, Day 43): 11.9 g/dL
- MCH (sheep #85, 15 mg/day, Day 43): 12.6 pg
- MCHC (sheep #85, 15 mg/day, Day 43): 34.1 g/dL
- MCV (sheep #85, 15 mg/day, Day 43): 36.8 fL
- Na+ (sheep #85, 15 mg/day, Day 43): 148 mEq/l
- Platlet Count (sheep #85, 15 mg/day, Day 43): 604000 µL⁻¹
- RBC (sheep #85, 15 mg/day, Day 43): 9.44e+06 µL⁻¹
- WBC (sheep #85, 15 mg/day, Day 43): 3130 µL⁻¹
- Total Bili (sheep #85, 15 mg/day, Day 43, ref 0.14-0.32): 0.1 mg/dL
- Creatinine (sheep #85, 15 mg/day, Day 43, ref 1-2.7): 1.3 mg/dL
- Albumin (sheep #85, 15 mg/day, Day 43, ref 2.4-3): 3.6 g/dL
- K+ (sheep #85, 15 mg/day, Day 43, ref 3.9-5.4): 4.9 mEq/l
- Phos (sheep #85, 15 mg/day, Day 43, ref 5-7.3): 7.1 mg/dL
- Total Prot (sheep #85, 15 mg/day, Day 43, ref 6-7.9): 6.4 g/dL
- ALT (sheep #91, 15 mg/day, Day 1): 7 U/L
- AST (sheep #91, 15 mg/day, Day 1): 61 U/L
- Alk Phos (sheep #91, 15 mg/day, Day 1): 132 U/L
- BUN (sheep #91, 15 mg/day, Day 1): 9 mg/dL
- CPK (sheep #91, 15 mg/day, Day 1): 52 U/L
- Cholesterol (sheep #91, 15 mg/day, Day 1): 47 mg/dL
- Differential Count: Eosin (sheep #91, 15 mg/day, Day 1): 1%
- Differential Count: Lymph (sheep #91, 15 mg/day, Day 1): 21%
- Differential Count: Mono (sheep #91, 15 mg/day, Day 1): 2%
- Differential Count: Seg (sheep #91, 15 mg/day, Day 1): 76%
- Gamma GT (sheep #91, 15 mg/day, Day 1): 51 U/L
